Measurements as given in patent US7405211B2, “Therapeutic morpholino-substituted compounds” (AstraZeneca AB, priority 2000, dated 2008).

Assays:
[1] = system: rats producing regular cyclic flow reductions (CFRs); assay: Animal model of internal carotid artery occlusion (Folts model, cyclic flow reductions); assay type: in vivo; details: rat
Source text: The inhibitory effect of TGX-40 was examined in the well established animal model of arterial thrombosis of Folts et al., 1982, Circulation 65:248-255. This model is used to investigate the effects of antithrombotic drugs on clotting time in vivo in response to a crush injury followed by arterial stenosis.
The carotid artery of an anesthetized rat is dissected out, and an electromagnetic flow probe is placed around the artery to measure blood flow. Proximal to the flow probe, the artery is clamped with surgical forceps covered with silicone tubing to cause intimal and medial damage to the vessel wall. A ligature, or plastic cylinder of appropriate inside diameter is laced around the artery to produce a 70% reduction in arterial diameter.
Platelets aggregate in the area of the stenosed and damaged arterial vessel, gradually forming an occlusive platelet thrombus, seen as a decrease in blood flow. As the thrombus forms, blood pressure increases, causing the thrombus to fragment and embolize distal to the stenosed site. […] This causes a sudden restoration of blood flow. Platelets again aggregate in the area of the stenosed and damaged arterial vessel, repeating the thrombus-embolization pattern. […]
TGX-40 was administered at doses of 1.6 mg/kg and 3.2 mg/kg via the jugular vein and the stabilization of blood flow was recorded.

platelets = assay: Flow-based reconstitution assay: platelet adhesion to vWf-coated glass microslides; assay type: cell-based; details: 30 min pretreatment, shear rate 1800 s^−1
Protocol: The effect of TGX-40 on platelet adhesion was examined using a flow-based adhesion assay. Washed platelets were pretreated with 10, 25, or 50 μM TGX-40, or control buffer (0.1% DMSO) for 30 minutes at 37° C. prior to reconstitution with red blood cells to a hematocrit of 50%. The platelets and reconstituted red blood cells were perfused through vWf-coated glass microslides for 1 minute at a shear rate of 1800 s^−1. Non-adherent cells were removed by washing for 10 minutes at 1800 s^−1 and the number of adherent platelet were quantitated and expressed as the mean±SEM. As illustrated graphically in FIG. 1, TGX40 inhibited the ability of platelets to adhere in a dose-dependent manner, showing a decrease of 51, 67 and 86% in platelet adhesion when platelets were pretreated with 10, 25, and 50 μM TGX-40.

[2] = system: platelet thrombus formation; assay: Whole-blood flow assay: platelet thrombus formation on vWf matrix (platelet LDH); assay type: cell-based; details: shear rate 1800 s^−1
Protocol: The inhibitory effect of TGX-40 on platelet thrombus formation was examined using a whole-blood flow assay, since thrombi formed by washed platelets are small and poorly reproducible. Anticoagulated whole blood was incubated with 50, 100, or 200 μM TGX-40, or control buffer (0.1% DMSO) for 30 minutes with gentle rocking prior to perfusion through vWf-coated glass microslides for 2 minutes at a shear rate of 1800 s^−1. Non-adherent platelets were removed by washing for 10 minutes at 1800 s^−1, and adherent erythrocytes were lysed with 1% ammonium oxalate. The level of thrombus formation was quantitated indirectly by measuring platelet LDH (U/L) levels in the whole cell lysates by spectrophotometry. Following a 2-minute perfusion of whole blood, platelet-rich thrombi were observed over the surface of the microslide. […] As illustrated graphically in FIG. 2, pretreatment of whole blood with 50, 100, and 200 μM TGX-40 led to a decrease of 25, 53, and 80% in thrombus formation relative to control.

[3] = system: K562 (leukaemia derived) and U937 (moncytic) cell lines; assay: Cell proliferation assay; assay type: cell-based; details: 20 μM, 4 day incubation
Protocol: The anti-proliferative activity of the compounds of this invention from all three chemical classes was determined using K562 (leukaemia derived) and U937 (moncytic) cell lines. The cytotoxic activity of the compounds was monitored over four days by counting cell number and determining cell viability using a colourimetric assay metabolic activity.

[4] = system: PI 3-kinase immunoprecipitated from human platelets; assay: In vitro PI 3-kinase assay (32P incorporation into PI); assay type: biochemical; details: PI 3-kinase from human platelets, PI substrate
Protocol: The effect of TGX-25, TGX-33, TGX-37, TGX-40, TGX-41, TGX-57, TGX-84, TGX-90, TGX-93, TGX-98, TGX-99, TGX-101, TGX-106, TGX-107, TGX-108, TGX-109, TGX-111, TGX-112, TGX-113, TGX-115, TGX-120, TGX-121, TGX-123, TGX-124, TGX-126, TGX-127, TGX-130 or TGX-131on PI 3-kinase activity was determined using an in vitro PI 3-kinase assay. This assay was performed using PI 3-kinase immunoprecipitated from human platelets as the enzyme and PI as the substrate. The PI 3-kinase activity was quantitated by measuring the enzymatic incorporation of [^32P] into PI, forming PI([^32P]-3)P, as previously described (Susa et al., 1992, The Journal of Biological Chemistry 267(32):22951-22956.
Washed human platelets were lysed in Triton X-100 lysis buffer (10 mM Tris, pH 7.4, 1% Triton X-100, 2 mM EDTA, 1 mM PMSF) for 30 minutes. The Triton X-100 insoluble fraction was removed by centrifugation of the cell lysates at 15,000 g for 10 minutes. PI 3-kinase was immunoprecipitated by mixing 500 μg of the cell lysate with 1 μg of a rabbit anti-rat antibody against the p85/110 form of PI 3-kinase and 30 μl of 50% Protein A-sepharose beads for 2 hours at 4° C. The Protein A-sepharose-bound PI 3-kinase was isolated by pelleting the beads at 15,000 g for 5 seconds, and washing three times with ice-old Triton X-100 lysis buffer followed by four washes with PI 3-kinase assay buffer (20 mM HEPES, pH 7.4, 1 mM EGTA, 5 mM MgCl2).
PI stored in CHCl3 was dried under N2, resuspended in the lipid buffer (50 mM HEPES, pH 7.2, 1 mM EDTA) at a final concentration of 330 μg/ml, and sonicated for 6 minutes on ice. PI([^32P]-3)P was generated by mixing the immunoprecipitated PI 3-kinase for 20 minutes with 40 μl of the PI, 10 μl of ATP (1 mM) and ^32P-r-ATP (0.5 μCi, 1 μCi/nmol), 10 μl of 10× kinase buffer, in a final assay volume of 100 μl adjusted with H2O. TGX-25, TGX-33, TGX-37, TGX-40, TGX-41, TGX-57, TGX-84, TGX-90, TGX-93, TGX-98, TGX-99, TGX-101, TGX-106, TGX-107, TGX-108, TGX-109, TGX-111, TGX-112, TGX-113, TGX-115, TGX-120, TGX-121, TGX-123, TGX-124, TGX-126, TGX-127, TGX-130 or TGX-131 was preincubated with the PI 3-kinase for 5 minutes prior to the addition of ATP. The assay was terminated with 100 μl of 1 N HCl, and the PI([^32P]-3)P product extracted with 200 μl chloroform:methanol (1:1) and 500 μl 2 M KCl. The PI([^32P]-3)P in the chloroform phase was resolved by thin layer chromatography using a solvent system containing CHCl3:MeOH:HAC:H2O (43:38:5:7) (v:v:v:v), and visualized by autoradiography. The PI([^32P]-3)P spots were then scraped off from the TLC plates, deacylated with 1 ml methylamine:butanol:methanol (42:9:47) (v:v:v) for 4 hours at 53° C., and quantitated using a liquid scintillation counter (LKB 1209 RackBETA).

tyrosine kinase EGF = tyrosine kinase EGF (Homo sapiens, UniProt P00533); assay: Enzyme screening assay: tyrosine kinase EGF; assay type: biochemical
Source text: (§1) The two leading compounds of the quinolone series, TGX155 and TGX84 were screened for activity against seven enzymes related to PI3K in function or substrate specificity, viz: ATPase, PDE4, tyrosine kinases EGF and fyn, protein kinases A and C, and tyrosine phosphatase.

[5] = system: platelet thrombus formation; assay: Platelet thrombus formation under flow, citrated whole blood, vWf-coated microcapillary tubes (LDH); assay type: cell-based; details: 50, 100, 200 μM, 600 s^−1
Protocol: Citrated whole blood was pretreated with 50, 100 or 200 μM TGX-84, or control buffer (0.1% DMSO) for 10 minutes at 37° C. Blood was perfused through von Willebrand factor-(vWf) coated microcapillary tubes for 2 minutes at 600 s^−1. Non-adherent cells were removed by perfusion of buffer for 2 minutes at 600 s^−1 and any adherent erythrocytes lysed through treatment with 1% ammonium oxalate. Adherent platelets were then lysed through addition of 1% Triton X-100 and lactate dehydrogenase (LDH) levels (U/L) analysed by spectrophotometry.

PI3K α/β isoforms = assay: In vitro enzyme assay PI3K α/β; assay type: biochemical; details: immunoprecipitated from platelet lysate
Protocol: (§2) In vitro enzyme assays were conducted as a primary screen to determine drug candidate isoform affinity and specificity.
(§3) The α and β isoforms of the PI3K were immunoprecipitated from a platelet lysate using an antibody that recognised the p85 regulatory subunit common to both forms of the enzyme. The γ isoform was produced as a recombinant protein in the Thrombogenix laboratories. […] Standard phosphorylation assays using phosphatidylinositol and ^32P were used to measure the enzyme activity in the immunoprecipates in the presence or absence of an inhibitor. Enzyme activity was determined over a range of inhibitor concentrations to establish an IC50 value.

PI3K γ = target: T1, PI3K γ (Homo sapiens, UniProt P48736); assay: In vitro enzyme assay PI3K γ (recombinant); assay type: biochemical; details: recombinant γ isoform
T1 construct: made in house
Protocol: as §2, §3

tyrosine kinase fyn = tyrosine kinase fyn (Homo sapiens, UniProt P06241); assay: Enzyme screening assay: tyrosine kinase fyn; assay type: biochemical
Source text: as §1

PI4K = target: T2, PI4K; assay: In vitro enzyme assay PI4K; assay type: biochemical; details: PI4K isolated from platelets; read-out: IC50 against PI4K
T2 construct: PI4K was isolated from platelets in a similar manner using a PI4K specific antibody
Protocol: In vitro enzyme assays were conducted as a primary screen to determine drug candidate isoform affinity and specificity. The affinity of two leading compounds of the quinolone series (TGX84 and TGX155) for a closely related enzyme family, PI4K, was also determined to maximise compound specificity and therefore minimise potential adverse biochemical events.
The α and β isoforms of the PI3K were immunoprecipitated from a platelet lysate using an antibody that recognised the p85 regulatory subunit common to both forms of the enzyme. The γ isoform was produced as a recombinant protein in the Thrombogenix laboratories. PI4K was isolated from platelets in a similar manner using a PI4K specific antibody. Standard phosphorylation assays using phosphatidylinositol and ^32P were used to measure the enzyme activity in the immunoprecipates in the presence or absence of an inhibitor. Enzyme activity was determined over a range of inhibitor concentrations to establish an IC50 value.

T1 sequence (P48736 whole entry, species assumed, canonical isoform): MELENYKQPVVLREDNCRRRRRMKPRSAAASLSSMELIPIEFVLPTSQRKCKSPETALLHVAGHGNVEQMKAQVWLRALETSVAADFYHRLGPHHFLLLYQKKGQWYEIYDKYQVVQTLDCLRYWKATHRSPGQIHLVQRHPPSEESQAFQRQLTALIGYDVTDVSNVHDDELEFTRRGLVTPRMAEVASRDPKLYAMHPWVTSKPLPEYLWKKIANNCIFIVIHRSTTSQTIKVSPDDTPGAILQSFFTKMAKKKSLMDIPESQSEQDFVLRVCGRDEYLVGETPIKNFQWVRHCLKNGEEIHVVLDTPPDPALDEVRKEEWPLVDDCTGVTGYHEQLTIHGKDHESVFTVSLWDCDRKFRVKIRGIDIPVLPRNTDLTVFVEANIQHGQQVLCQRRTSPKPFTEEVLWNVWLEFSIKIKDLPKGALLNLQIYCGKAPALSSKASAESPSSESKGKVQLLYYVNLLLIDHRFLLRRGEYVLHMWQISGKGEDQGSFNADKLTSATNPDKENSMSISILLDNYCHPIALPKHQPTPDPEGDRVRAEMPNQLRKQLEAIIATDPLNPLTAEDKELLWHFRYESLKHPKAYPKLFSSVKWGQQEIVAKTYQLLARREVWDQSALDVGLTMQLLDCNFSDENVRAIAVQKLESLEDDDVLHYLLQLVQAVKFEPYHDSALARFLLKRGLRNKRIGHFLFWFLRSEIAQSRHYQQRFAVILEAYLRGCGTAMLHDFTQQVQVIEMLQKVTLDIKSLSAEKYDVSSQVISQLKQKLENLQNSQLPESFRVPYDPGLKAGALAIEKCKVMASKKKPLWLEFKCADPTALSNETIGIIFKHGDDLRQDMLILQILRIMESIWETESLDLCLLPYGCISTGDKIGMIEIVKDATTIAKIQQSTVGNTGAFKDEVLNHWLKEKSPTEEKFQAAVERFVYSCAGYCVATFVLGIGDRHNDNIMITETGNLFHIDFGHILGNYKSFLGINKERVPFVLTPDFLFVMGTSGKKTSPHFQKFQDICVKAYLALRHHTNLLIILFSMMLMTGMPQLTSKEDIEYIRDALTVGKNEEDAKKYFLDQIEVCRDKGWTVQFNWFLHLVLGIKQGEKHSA
tyrosine kinase EGF, sequence (P00533 25-1210): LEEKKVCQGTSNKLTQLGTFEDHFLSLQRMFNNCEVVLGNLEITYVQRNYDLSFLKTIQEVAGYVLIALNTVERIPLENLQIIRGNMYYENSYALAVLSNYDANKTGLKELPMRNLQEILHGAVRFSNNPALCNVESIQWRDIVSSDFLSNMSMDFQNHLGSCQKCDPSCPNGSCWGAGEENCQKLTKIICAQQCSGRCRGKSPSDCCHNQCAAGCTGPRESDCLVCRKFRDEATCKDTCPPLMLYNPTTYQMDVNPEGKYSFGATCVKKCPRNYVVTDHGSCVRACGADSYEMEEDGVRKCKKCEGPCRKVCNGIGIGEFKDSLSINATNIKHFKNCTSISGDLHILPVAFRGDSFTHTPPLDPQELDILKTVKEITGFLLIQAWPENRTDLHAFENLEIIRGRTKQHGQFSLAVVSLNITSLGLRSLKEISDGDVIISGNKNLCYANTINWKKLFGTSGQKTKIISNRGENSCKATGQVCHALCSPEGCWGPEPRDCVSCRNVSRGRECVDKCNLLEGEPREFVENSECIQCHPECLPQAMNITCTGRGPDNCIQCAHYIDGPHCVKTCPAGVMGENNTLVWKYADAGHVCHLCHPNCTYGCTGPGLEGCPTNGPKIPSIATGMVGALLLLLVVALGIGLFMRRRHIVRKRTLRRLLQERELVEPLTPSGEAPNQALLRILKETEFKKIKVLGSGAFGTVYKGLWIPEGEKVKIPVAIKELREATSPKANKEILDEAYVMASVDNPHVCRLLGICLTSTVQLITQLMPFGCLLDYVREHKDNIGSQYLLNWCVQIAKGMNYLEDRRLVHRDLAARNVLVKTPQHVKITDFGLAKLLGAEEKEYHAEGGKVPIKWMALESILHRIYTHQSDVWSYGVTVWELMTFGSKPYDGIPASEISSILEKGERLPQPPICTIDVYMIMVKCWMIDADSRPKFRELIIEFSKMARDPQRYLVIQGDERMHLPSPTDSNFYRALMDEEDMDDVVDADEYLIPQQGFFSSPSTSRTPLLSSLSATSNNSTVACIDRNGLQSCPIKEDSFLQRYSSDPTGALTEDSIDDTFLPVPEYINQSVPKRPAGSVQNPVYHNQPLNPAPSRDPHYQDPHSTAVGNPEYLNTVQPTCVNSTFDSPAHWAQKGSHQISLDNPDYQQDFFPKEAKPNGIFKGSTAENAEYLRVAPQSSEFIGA
tyrosine kinase fyn, sequence (P06241 whole entry): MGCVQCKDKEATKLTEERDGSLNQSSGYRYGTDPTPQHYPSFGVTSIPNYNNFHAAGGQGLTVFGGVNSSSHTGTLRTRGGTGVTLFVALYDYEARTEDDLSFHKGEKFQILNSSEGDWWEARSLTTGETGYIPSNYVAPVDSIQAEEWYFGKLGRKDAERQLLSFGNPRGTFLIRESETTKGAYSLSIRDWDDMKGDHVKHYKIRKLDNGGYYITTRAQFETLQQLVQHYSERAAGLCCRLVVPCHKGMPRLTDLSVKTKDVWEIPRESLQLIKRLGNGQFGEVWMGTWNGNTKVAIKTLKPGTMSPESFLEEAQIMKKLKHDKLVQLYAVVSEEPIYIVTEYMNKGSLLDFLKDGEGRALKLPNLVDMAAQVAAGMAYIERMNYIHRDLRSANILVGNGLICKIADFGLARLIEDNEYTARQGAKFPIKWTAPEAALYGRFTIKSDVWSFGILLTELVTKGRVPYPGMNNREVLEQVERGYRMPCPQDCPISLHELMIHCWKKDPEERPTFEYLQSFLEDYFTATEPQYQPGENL

| SMILES | % Cells remaining [3] | IC50 [4] | IC50 (tyrosine kinase EGF) | IC50 (PI3K α/β isoforms) | IC50 (PI3K γ) | IC50 (tyrosine kinase fyn) | IC50 (PI4K) | also measured |
| --- | --- | --- | --- | --- | --- | --- | --- | --- |
| O=c1cc(N2CCOCC2)nc2c(Cc3ccccc3)cccn12 [TGX-40] | 75% | ~1.5 µM | – | – | – | – | – | treated animals returned to baseline within 10 minutes ([1]; 1.6 mg/kg via the jugular vein): 90%; treated animals returned to baseline within 10 minutes ([1]; 3.2 mg/kg via the jugular vein): 90%; decrease in platelet adhesion (platelets; 10 μM): 51%; decrease in platelet adhesion (platelets; 25 μM): 67%; decrease in platelet adhesion (platelets; 50 μM): 86%; decrease in thrombus formation relative to control ([2]; 50 μM): 25%; decrease in thrombus formation relative to control ([2]; 100 μM): 53%; decrease in thrombus formation relative to control ([2]; 200 μM): 80% |
| O=c1cc(N2CCOCC2)[nH]c2c(Oc3ccccc3)cccc12 [TGX-84, 2-Morpholino-8-phenoxy-4-quinolone] | – | 0.1 µM | > 100 µM | 0.1 µM | 5 µM | > 100 µM | 100 µM | thrombosis formation relative to control [5]: decrease in thrombosis formation relative to control |
| Cc1cc(N[C@H](C)c2ccccc2)c2nc(N3CCOCC3)cc(=O)n2c1 [TGX-123] | 10% | 0.2 µM | – | – | – | – | – | – |
| Cc1cc(F)ccc1Oc1cccc2c(=O)cc(N3CCOCC3)[nH]c12 [TGX-155, 8-(4′-Fluoro-2′-methylphenoxy)-2-morpholino-4-quinolone] | – | 0.02 µM | > 100 µM | 0.02 µM | 5 µM | > 100 µM | 100 µM | – |
| Cc1cc(NCc2ccccc2Cl)c2nc(N3CCOCC3)cc(=O)n2c1 [TGX-167] | 1.5% | 0.05 µM | – | 0.05 µM | 5 to 10 µM | – | – | – |
| Cc1cc(CNc2ccc(F)cc2C)c2nc(N3CCOCC3)cc(=O)n2c1 [TGX-186] | 1.5% | – | – | – | – | – | – | – |
